1 compound from US9140689B2, “Methods of determining susceptibility of tumors to tyrosine kinase inhibitors” (Translational Genomics Research Institute, priority 2010, dated 2015) can be followed below.

Common to all, as to type: cell-based, murine
In test [1] the test system is BaF3/FGFR2b wildtype cells. The test is described as follows: BaF3/FGFR2b cell viability (ViaLight assay), wildtype. The note with it: Mus musculus, BaF3, 72 h, read-out: IC50 value in BaF3/FGFR2b wildtype. The protocol: (§1) The BaF3 cell line is an IL-3 dependent murine pro-B cell line that is commonly employed to model TKI resistant mutations. BaF3 cells are made dependent on a specific oncogenic tyrosine kinase, and are cultured in the presence of a kinase inhibitor against that specific kinase, and resistant colonies can be screened for drug resistant mutations. This approach effectively reproduced the pattern and relative abundance of Bcr-Abl mutations seen clinically in imatinib-resistant patients (Von Bubnoff, N. et al, Blood. 2005 105:1652-1659)
(§2) BaF3/FGFR2b wildtype and N550K mutation variant cells were plated at a density of 10,000 cells/well in a 96-well plate. […] (Selleck Chemicals) or PD173074 (Calbiochem) was added in half-log dilutions in the absence of IL3 and in the presence of 1 nM FGF10 and 5 μg/mL heparin. After 72 hours, cell viability was measured using the ViaLight assay from Lonza (Visp, CH). The IC50 values shown in FIG. 1 were normalized to DMSO control and data were analyzed with Prism software. […].

Test [2] deals with BaF3/FGFR2b E719G mutation variant cells. As to the kind of experiment: BaF3/FGFR2b TKI resistance test, E719G variant alone. The source says:
Genomic DNA was isolated from the BaF3.FGFR2b colonies selected in the […]-resistance screen. Exons encoding the intracellular domain of FGFR2b were amplified and sequencing performed in two directions. Mutations in the intracellular domain of FGFR2b were identified in 26 of the 63 (41%) […] resistant BaF3.FGFR2b clones. Among the 26 FGFR2b mutations, eleven different mutation variants were detected (Table 1). The eleven different mutation variants are: M536I, M538I, I548V, N550H, N550K, N550S, V565I, E566G, L618M, E719G, and Y770IfsX14. The most commonly mutated codon was N550, with mutations occurring in 19 of the 26 (73%) resistant clones. In addition, E719G mutation variant was identified in a clone with a N550H mutation; […]. Similar tests were performed with the other 10 FGFR2b mutation variants. The majority of the mutations identified in this drug resistance screen result in activation of FGFR2. […]. The FGFR2 mutations resistance to another TKI PD173074 were also tested. […] The receptor activation of FGFR2 mutants and wildtype were measured and compared in the presence of FGF ligand. […]

Test [3] relates to BaF3/FGFR2b N550K mutation variant cells. The test is described as follows: BaF3/FGFR2b cell viability (ViaLight assay), N550K variant. How it is done: as §1, §2

Regarding `CCN(CC)CCCCNc1ncc2cc(-c3cc(OC)cc(OC)c3)c(NC(=O)NC(C)(C)C)nc2n1` [PD173074], the IC50 came out at 4.5 nM in test [1] and 776 nM in test [3] (Mus musculus, BaF3, 72 h, read-out: IC50 value in N550K resistance cells). The “resistance conferred by E719G mutation alone” value in test [2] is “did not induce resistance”. Further, the “fold difference of IC50, N550K versus wildtype” value in test [3] (BaF3/FGFR2b N550K vs wildtype) is “over 170 fold”.
